From patent US11878072B2, “Compositions and methods utilizing poly(vinyl alcohol) and/or other polymers that aid particle transport in mucus” (priority 2012, dated 2024)

Source text: An aqueous dispersion containing pyrene and one of the stabilizers/surface-altering agents listed above was stirred with milling media until particle size was reduced below 500 nm (as measured by dynamic light scattering).

Substance	Sample (relative) <Vmean>rel (relative sample velocity)	Sample <Vmean> (ensemble-average velocity)
Tween 80	0.17	0.94 um/s
Tyloxapol	−0.02	0.42 um/s
